Patent publication US4168318A, “1-(2,4,6-Trihydroxyphenyl)-propanedione-(1,2)-compounds and therapeutic compositions” (priority 1974, dated 1979)
Like-named read-outs stand apart in the source and are kept apart here. Marks after values point to notes of the source that are not given here.

Columns and labels:
[1] = Acute toxicity / acute tolerance after i.v. injection in mice (Experiment A); assay type: in vivo, mice (male and female SPF-mice, stock NMRI); conditions: mouse, in vivo, iv; for mortality at 336 h: N-methyl glucamine salt, 14 days observation, read-out: death rate %; for LD50 at 336 h: i.v., given as N-methyl glucamine salt, expressed as Compound, read-out: DL50, converted to the free compound
Protocol: (§1) The acute toxicity of the compounds of the invention was tested on mice, and since the substances are substantially nontoxic after oral administration, the acute tolerance of the two Compounds B and C in their methyl glucamine salts form was determined after i.v. injection. This form of preparation was also chosen for the pharmacological measurement of the antiphalloidine effect.
(§2) Experimental animals were male and female SPF-mice, stock NMRI, of the firm of Voss, Tuttlingen, Germany, having a weight of about 25-30 g. each. All animals were housed under identical conditions and were given "Sniff" standard food and drinking water ad libitum. The mice were administered the dosages once in 20 ml 0.9% NaCl+4% PVP/kg i.v. at an injection rate of approximately 1 ml/min. The observation time was 14 days.
(§3) 1. Compound B as N-methyl glucamine salt.
(§4) 2. Compound C as N-methyl glucamine salt.
(§5) 3. Polyvinyl pyrrolidone (PVP) of Fluka, mol. wt.~10,000 stock solution: 4% PVP dissolved in 0.9% NaCl.

mice = assay: as above; assay type: in vivo, mice (male and female SPF-mice, stock NMRI); conditions: for death rate/No. / death rate %: 14 days observation; for death rate/day, 2nd: 2nd day; for death rate/day, 3rd: 3rd day; for death rate/day, 1st: 1st day; for acute symptoms of non-tolerance: mice; for DL50, converted to the free compound: given as N-methyl glucamine salt, expressed as Compound
Protocol: as §1, §2, §3, §4, §5

[2] = tested on: phalloidine-induced damage to the liver; assay: Anti-phalloidine effect: serum enzymes GOT and GPT (Experiment C); assay type: in vivo, mice (female SPF-mice, stock NMRI); conditions: 140.5 mg/kg i.v. as N-methyl glucamine salt 1 hour before phalloidine 1.5 mg/kg i.p.
Protocol: As an additional pharmacological measurement, the antiphalloidine effect of Compound C as its N-methyl glucamine salt i.v. was subsequently determined.
1.5 mg phalloidine, predissolved in 3 ml methanol ad 20 ml
Experimental animals were female SPF-mice, stock NMRI, of the firm of Voss, Tuttlingen, having a weight of about 25 g. All animals were housed under identical conditions and were given "Ssniff" standard food and drinking water ad libitum. Compound C as its N-methyl glucamine salt was injected in a dosage of 140.5 mg/kg i.v. 1 hour before the phalloidine poisoning (1.5 mg/kg i.p.). The control animals received 40.5 mg/kg N-methyl glucamine salt i.v. after a period of 24 hours subsequent to the damage to the liver, blood was taken from the mice from the retroorbital venae plexus for the determination of the serum enzymes GOT and GPT.

[3] = tested on: liver damage induced by phalloidine; assay: Anti-phalloidine effect: death rate and survival time after phalloidine poisoning (Experiment B); assay type: in vivo, mice (male and female, homebred strain, stock Garvens); conditions: 140.5 mg/kg i.v. as N-methyl glucamine salt 1 hour before phalloidine 3 mg/kg i.p.
Protocol: The liver-protective effect of the compounds B and C according to the invention in the form of their water-soluble N-methyl glucamine salts was tested on mice by antagonizing liver damage induced by phalloidine with treatment using the compounds of the invention.
140.5 mg of Compound B/25 ml 0.9% NaCl+4% PVP/kg i.v.
40.5 mg MG/25 ml 0.9% NaCl+4% PVP/[…] i.v.
Phalloidine, predissolved in 3 ml methanol to 20 ml 0.9%
Experimental animals were male and female mice of a homebred strain, stock Garvens, having a weight of about 20-25 g. All animals were housed under identical conditions and were given "Ssniff" standard food and drinking water ad libitum.
Compound B as its N-methyl glucamine salt was injected in a dosage of 140.5 mg/kg i.v. 1 hour prior to administration of phalloidine at 3 mg/kg i.p. (to induce damage to the liver). The control animals received 40.5 mg/kg N-methyl glucamine salt i.v. The death rate and survival time after the phalloidine poisoning were registered. The observation time was 7 days.

[4] = female mice, 424.3 mg/kg i.v., N-methyl glucamine salt
[5] = female mice, 504.6 mg/kg i.v., N-methyl glucamine salt
[6] = female mice, 600 mg/kg i.v., N-methyl glucamine salt
[7] = male mice, 424.3 mg/kg i.v., N-methyl glucamine salt
[8] = male mice, 504.6 mg/kg i.v., N-methyl glucamine salt
[9] = male mice, 600 mg/kg i.v., N-methyl glucamine salt
[10] = female mice, 570 mg/kg i.v., N-methyl glucamine salt
[11] = female mice, 680 mg/kg i.v., N-methyl glucamine salt
[12] = female mice, 800 mg/kg i.v., N-methyl glucamine salt
[13] = female mice, 960 mg/kg i.v., N-methyl glucamine salt
[14] = male mice, 425 mg/kg i.v., N-methyl glucamine salt
[15] = male mice, 714.1 mg/kg i.v., N-methyl glucamine salt
[16] = male mice, 850 mg/kg i.v., N-methyl glucamine salt
[17] = male mice, 1200 mg/kg i.v., N-methyl glucamine salt
[18] = male mice, 1700 mg/kg i.v., N-methyl glucamine salt

COc1cc(C2Oc3c(O)cc(CC(=O)C(=O)c4c(O)cc(O)cc4O)cc3C2CO)ccc1O (stereo not drawn) [Compound C]
mortality at 336 h ([1]; 300 mg/kg, female mice, 300 mg/kg i.v.): 0% | mortality at 336 h ([1]; 300 mg/kg, male mice, 300 mg/kg i.v.): 0% | mortality at 336 h ([1]; 424.3 mg/kg, female mice, 424.3 mg/kg i.v.): 80% | mortality at 336 h ([1]; 424.3 mg/kg, male mice, 424.3 mg/kg i.v.): 40% | mortality at 336 h ([1]; 504.6 mg/kg, female mice, 504.6 mg/kg i.v.): 100% | mortality at 336 h ([1]; 504.6 mg/kg, male mice, 504.6 mg/kg i.v.): 100% | mortality at 336 h ([1]; 600 mg/kg, female mice, 600 mg/kg i.v.): 100% | mortality at 336 h ([1]; 600 mg/kg, male mice, 600 mg/kg i.v.): 100% | LD50 at 336 h ([1]; female mice): 274 mg/kg | LD50 at 336 h ([1]; male mice): 295 mg/kg | death rate/No. (mice; female mice, 300 mg/kg i.v., N-methyl glucamine salt): 0/10 | death rate/day, 2nd (mice; [4]): 1 | death rate/day, 3rd (mice; [4]): 5 | death rate/day, 4th (mice; female mice, 424.3 mg/kg i.v., N-methyl glucamine salt, 4th day): 2 | death rate/No. (mice; [4]): 8/10 | death rate/day, 1st (mice; [5]): 5 | death rate/No. (mice; [5]): 5/5 | death rate/day, 1st (mice; [6]): 5 | death rate/No. (mice; [6]): 5/5 | death rate/No. (mice; male mice, 300 mg/kg i.v., N-methyl glucamine salt): 0/10 | death rate/day, 2nd (mice; [7]): 3 | death rate/day, 3rd (mice; [7]): 1 | death rate/No. (mice; [7]): 4/10 | death rate/day, 1st (mice; [8]): 5 | death rate/No. (mice; [8]): 5/5 | death rate/day, 1st (mice; [9]): 5 | death rate/No. (mice; [9]): 5/5 | acute symptoms of non-tolerance (mice; i.v., N-methyl glucamine salt): accelerated respiration, laying on their side, and clonic tonic cramps before death actually occurred | damage to the liver, measured by the increase of serum enzymes GOT and GPT [2]: entirely prevented | GPT in the serum ([2]; female mice, 24 hours after, control 667.4±324.6): 13.4±0.9 mU/ml | GOT in the serum ([2]; female mice, 24 hours after, control 1489.2±904.7): 38.7±2.9 mU/ml

COc1cc(C2Oc3cc(CC(=O)C(=O)c4c(O)cc(O)cc4O)ccc3OC2CO)ccc1O (stereo not drawn) [Compound B]
phalloidine poisoning (DL80) measured by death rate and survival time [3]: prevented | death rate ([3]; male and female mice, 7 days, control 80%): 0% | death rate % (mice; [10]): 0% | death rate/No. (mice; [10]): 0/10 | death rate/day, 1st (mice; [11]): 1 | death rate % (mice; [11]): 10% | death rate/No. (mice; [11]): 1/10 | survival time span (mice; female mice, 680 mg/kg i.v., N-methyl glucamine salt, ' = minutes, ^h = hours): ~23^h minutes-hours | death rate/day, 1st (mice; [12]): 3 | death rate % (mice; [12]): 30% | death rate/No. (mice; [12]): 3/10 | death rate/day, 1st (mice; [13]): 7 | death rate % (mice; [13]): 70% | death rate/No. (mice; [13]): 7/10 | DL50, converted to the free compound (mice; female mice, i.v., 20160 min): 604.98 mg/kg | death rate % (mice; [14]): 0% | death rate/No. (mice; [14]): 0/5 | death rate % (mice; [9]): 0% | death rate/No. (mice; [9]): 0/10 | death rate/day, 1st (mice; [15]): 1 | death rate/day, 3rd (mice; [15]): 2 | death rate % (mice; [15]): 30% | death rate/No. (mice; [15]): 3/10 | death rate/day, 1st (mice; [16]): 8 | death rate % (mice; [16]): 80% | death rate/No. (mice; [16]): 8/10 | death rate/day, 1st (mice; [17]): 5 | death rate % (mice; [17]): 100% | death rate/No. (mice; [17]): 5/5 | death rate/day, 1st (mice; [18]): 3 | death rate % (mice; [18]): 100% | death rate/No. (mice; [18]): 3/3 | DL50 (mice; male mice, i.v., dose as N-methyl glucamine salt, 20160 min): 820 ± 34 mg/kg | DL50, converted to the free compound (mice; male mice, i.v., 20160 min): 583.63 mg/kg | acute symptoms of non-tolerance (mice; i.v., N-methyl glucamine salt): accelerated respiration, laying on their side, and clonic tonic cramps before death actually occurred
